Source: article PMC9166630, “SAR Probing of KX2-391 Provided Analogues With Juxtaposed Activity Profile Against Major Oncogenic Kinases” (Frontiers in Oncology, 2022)
“And” between values parts separate entries of the source, which are not always exact repeats. Equal values may be shown once.

Columns and labels:
[1] = target: T1, EphA2 (Homo sapiens, UniProt P29317); test: PamChip tyrosine kinase microarray, EphA2; type: biochemical; settings: 4e 0.1 µM, HL60 lysate
T1 construct: endogenous in cells; host or cells: HL60 lysate
T1 sequence (P29317 24-976): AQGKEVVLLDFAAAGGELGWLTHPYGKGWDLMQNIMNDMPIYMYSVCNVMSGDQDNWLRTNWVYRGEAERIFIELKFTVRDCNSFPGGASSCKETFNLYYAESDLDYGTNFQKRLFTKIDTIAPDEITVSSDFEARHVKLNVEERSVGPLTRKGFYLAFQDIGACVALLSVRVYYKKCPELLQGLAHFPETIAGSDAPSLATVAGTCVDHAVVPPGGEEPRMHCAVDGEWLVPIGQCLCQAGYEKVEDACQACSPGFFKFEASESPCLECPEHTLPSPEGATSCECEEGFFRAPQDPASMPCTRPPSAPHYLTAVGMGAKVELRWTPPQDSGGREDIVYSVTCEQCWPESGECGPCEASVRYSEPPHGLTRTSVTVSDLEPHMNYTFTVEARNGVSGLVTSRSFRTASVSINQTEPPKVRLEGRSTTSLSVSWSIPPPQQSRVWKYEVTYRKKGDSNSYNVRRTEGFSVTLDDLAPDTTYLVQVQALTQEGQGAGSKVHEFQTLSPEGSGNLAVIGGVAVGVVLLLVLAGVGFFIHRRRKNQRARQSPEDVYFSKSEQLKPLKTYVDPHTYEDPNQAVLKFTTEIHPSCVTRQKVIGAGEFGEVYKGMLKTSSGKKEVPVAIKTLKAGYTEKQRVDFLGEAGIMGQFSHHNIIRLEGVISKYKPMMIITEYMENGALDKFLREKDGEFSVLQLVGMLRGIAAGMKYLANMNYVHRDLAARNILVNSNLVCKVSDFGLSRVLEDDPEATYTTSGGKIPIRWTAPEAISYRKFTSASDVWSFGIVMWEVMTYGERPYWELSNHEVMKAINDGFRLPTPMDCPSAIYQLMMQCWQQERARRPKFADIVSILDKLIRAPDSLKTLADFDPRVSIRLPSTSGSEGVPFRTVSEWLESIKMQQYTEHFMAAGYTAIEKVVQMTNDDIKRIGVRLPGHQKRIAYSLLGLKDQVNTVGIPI
Experimental: (§1) The changes in kinase activities induced by treatment with 4e were monitored within the HL60 cell lines using PamGene’s (Hertogenbosch, Netherlands) PamChip® peptide microarray profiler, which quantifies the activities of 144 tyrosine kinases (YK) ([29], [30]) (Figure 7). Results are provided as a log fold change (LFC) heatmap and Mean Kinase Statistic. From the LFC it is apparent that compound 4e, at a concentration of 0.1 µM, induced sizable changes to the activity of several kinases within the cell signaling YK profile (Figure 7A).
(§2) An Upstream Kinase tool was used to generate a putative list of kinases responsible for phosphorylating the phospho-sites on the PamChip (Figure 7B) ([31]). It is an interpretation and is highly dependent on the contents of the underlying phosphorylation databases. A Kinase Score was used for ranking kinases based on their significance and specificity in terms of the set of peptides used for the corresponding kinase. Kinase Statistics indicates the overall change of the peptide set that represents the kinase. Kinase statistics value <0 indicates lower kinase activity in the compound spiked lysate and vice versa ([32], [33]). Table 5 lists the 20 most changed kinases within treated HL60 cell lysates by 0.1 μM 4e, ranked according to their Kinase Score.
The compound 4e was spiked into HL60 cell lysate at different concentrations (0.001, 0.01, 0.1, 1, 10 and 50 μM). In addition, DMSO was also spiked in HL60 lysate at low concentration (2% v/v) as control. Samples were profiled on PamGene’s Tyrosine Kinase (PTK) arrays in technical replicates, covering a total of 196 phosphorylation sites. Frozen HL60 cultured cell pellet was sent to PamGene. At PamGene, cells were lysed using a lysis buffer and proteases inhibitors cocktail. Protein concentration was measured using standard Bradford assay as per PamGene SOPs. These lysates were further used for generating the PTK activity profiles. For spiking, 4e was received as powder form and dissolved in DMSO at PamGene facility followed by storing at -20°C in small aliquots. PamGene used its in-house bioinformatics toolbox in combination with other methods to generate hypotheses of signaling pathways.

[2] = system: HL60 cells; test: Cell cycle analysis (Hoechst 33342, flow cytometry); type: cell-based, human; settings: HL60, 5 µM, 48 h
Experimental: The effect of 4e on the distribution of cells in different phases of the cell cycle was determined by flow cytometry using Hoescht 33342 staining in HL60 cells.
HL60 cells (3.5 x 10^5) were seeded in a 6-well plate, were treated with appropriate concentrations of the test compound after attachment, and were incubated at 37°C for 48 h. The treated cells were then collected and washed twice with ice-cold PBS (1X). The washed cells were fixed using 80% ice cold ethanol and stored at -20°C overnight. Fixed cells were washed twice with PBS before staining with 10 µg of Hoechst 33342 (10 µg/mL; Thermo Fisher Scientific, Inc.) and incubated in the dark for 30 min on ice. Cells were washed again with PBS wash and a minimum total of 20,000 events were collected and analyzed using a BD FACSAria III flow cytometer (BD Biosciences, USA). Flowlogic software version 7.0/7.2.1 (Inivai Technologies Pvt Ltd, Victoria, Australia) was used to obtain the percentage distribution of cells in G1, S, and G2/M phases in the singlet-gated population. For validation purpose, we included KX2-391 as a positive reference in this assay.

[3] = system: Src; test: PamChip tyrosine kinase microarray, Src; type: biochemical, human; settings: 4e 0.1 µM, HL60 lysate
Experimental: as §1, §2
(§3) The two multiple-kinase tests (PamChip and Phosphokinase Profiler) provided strong evidence of very minor involvement of Src in the cellular activities of 4e. However, the question must be raised about the effect of the 4e on other SRC family kinase (SFK). To address this point, we must highlight that both R&D phosphokinase profiler and PamChip feature Yes, Fgr, Lyn, Lck and Src while Fyn, Hck, Blk and Frk activities are tested in the PamChip only. The signals of SFKs in the R&D Phosphokinase Profiler were too weak to detect in both untreated (control) and 4e-treated HL60 cells. In PamChip assay, most of SFK’s were not ranked in the top 20 affected kinases (Table 5). In addition, their Specificity Score were very low (Table 6) indicating their marginal importance to the cell killing activities of 4e. Fgr kinase which ranked 7th in the list (Table 5) was the only SFK member that seems to be affected by the compound, albeit with low Specificity Score (1.03).
(§4) The compound 4e was spiked into HL60 cell lysate at different concentrations (0.001, 0.01, 0.1, 1, 10 and 50 μM). In addition, DMSO was also spiked in HL60 lysate at low concentration (2% v/v) as control. Samples were profiled on PamGene’s Tyrosine Kinase (PTK) arrays in technical replicates, covering a total of 196 phosphorylation sites. Frozen HL60 cultured cell pellet was sent to PamGene. […] Protein concentration was measured using standard Bradford assay as per PamGene SOPs. […]

[4] = system: CREB; test: Human phosphokinase array, CREB; type: cell-based
From the text: (§5) The kinome tree representation (Figure 7C), which was generated by raising the Kinase Score cut-off to >1.2, confirmed that, unlike tirbanibulin and our prototype molecule KX1-136, 4e’s effects were more observable on kinases other than the Src family such as the Eph and TEC families. […] Therefore, we screened compound 4e using the Human Phospho-Kinase Array® kit from R&D systems (Minneapolis, MN, USA). In this system, 35 phosphorylated YK and serine-threonine kinase (STK) enzymes in the untreated (control) and treated (test) HL60 cell lysates were captured on nitrocellulose membrane, pre-spotted with phosphokinase-specific capture antibodies, and then visualized by detection antibody cocktails (Figure 8). The difference in the spot intensity between untreated (control) and treated cells is proportional to change in the amount of the phosphorylated protein induced by 4e.
(§6) The phosphorylation profile of 48 kinases was performed using the Proteome Profiler Human Phospho-Kinase Antibody Array Kit by R&D Systems (Minneapolis, MN, USA) according to the protocol. Briefly, the total cellular protein was extracted using the Lysis buffer and was quantified using Bio-Rad DC Protein Assay kit (Hercules, CA, USA). Nitrocellulose membrane set (A&B), pre-spotted with kinase-specific capture antibodies, were first blocked with Array Buffer-1 at RT for 30 min on a rocking platform shaker. Approximately 600 µg of protein concentrate was diluted in the buffer provided and was added onto the membrane set, and the membranes were incubated overnight at 4°C in an 8-well plate. Subsequently, membranes were washed with Wash Buffer and incubated with appropriate Detection Antibody cocktails for 2 h at RT. Streptavadin-HRP (1:2000) was added onto membranes and incubated for 30 min at RT. Membranes were washed, and Chemiluminescent Detection Reagents 1&2 were applied in equal volumes for detection. The signals were detected on C-DiGit®Blot Scanner (LI-COR, Odyssey Imaging Systems, Lincoln, Nebraska, USA) using Image Studio 5.0 software.

[5] = system: Yes; test: PamChip tyrosine kinase microarray, Yes; type: biochemical, human; settings: 4e 0.1 µM, HL60 lysate
Experimental: as §1, §2, §3, §4

[6] = system: Hck; test: PamChip tyrosine kinase microarray, Hck; type: biochemical, human; settings: 4e 0.1 µM, HL60 lysate
Experimental: as §1, §2, §3, §4

[7] = system: AKT 1/2/3; test: Human phosphokinase array, AKT 1/2/3; type: cell-based
From the text: as §5, §6

Q: Which results are given for O=C(Cc1ccc(NC(=O)c2cccc(Cl)c2)cc1)NCc1ccccc1 [Compound 4e, N-(4-(2-(benzylamino)-2-oxoethyl)phenyl)-3-chlorobenzamide]?
A: Mean Final Score [1]: 2.4004; Mean Kinase Statistic [1]: -0.7066; Mean Significance Score [1]: 1.5807; Mean Specificity Score [1]: 0.8197; Apoptosis (cell cycle profile) [2]: 14.66%; G2M population [2]: 24.51%; Mean Final Score [3]: 0.7589; Mean Kinase Statistic [3]: -0.3527; Mean Significance Score [3]: 0.7353; Mean Specificity Score [3]: 0.0236; phosphokinase signal after 4e exposure, CREB ([4]; HL60 cell lysate, treated): 682.43; Change in Signal, CREB ([4]; treated vs untreated HL60): 42.08; % Change, CREB ([4]; treated vs untreated HL60, Ser133): 6.57% and ~ 6%; Mean Final Score [5]: 1.1516; Mean Kinase Statistic [5]: -0.4139; Mean Significance Score [5]: 1.0126; Mean Specificity Score [5]: 0.1390; Mean Final Score [6]: 1.0872; Mean Kinase Statistic [6]: -0.4497; Mean Significance Score [6]: 0.8248; Mean Specificity Score [6]: 0.2624; increased phosphorylation of Akt1/2/3 at Thr308 and Ser473 compared to control ([7]; HL60, versus no treatment): > 117 fold; phosphokinase signal after 4e exposure, AKT 1/2/3 ([7]; HL60 cell lysate, treated): 22.29; % Change, AKT 1/2/3 ([7]; treated vs untreated HL60): 11783.08%; Change in Signal, AKT 1/2/3 ([7]; treated vs untreated HL60): 22.10
